These results are taken from the C3SDB collision cross section collection.

The conditions of data set [1]: [M+H]+; instrument: TW.
For data set [2] the following is noted: instrument: DT, single field, calibrated with Agilent tune mix (Agilent).
The conditions of data set [3]: instrument: TW, calibrated with phosphatidylcholines (ESI+) and phosphatidylethanolamines (ESI-).
For data set [4] the following is noted: instrument: DT, stepped-field.

For the compound `C[C@]12C=CC3=C4CCC(=O)C=C4CC[C@H]3[C@@H]1CC[C@@H]2O` [17B-Trenbolone], the “collision cross section (N2)” value in data set [1] is 163.3 Å².
The same measure, in the same setting: the result for `C[C@]12CC[C@H]3[C@@H](CCC4=CC(=O)CC[C@H]43)[C@@H]1CC[C@H]2O` [17a-Nortestosterone] reads 165.7 Å²; that for `CC12C=CC3=C4CCC(=O)C=C4CCC3C1CCC2O` (stereo not given) [17a-Trenbolone], 163.3 Å²; that for `CNC(=O)ON=CC(C)(C)S(C)=O` (stereo not given) [Aldicarb sulfoxide], 145.4 Å².
Turning to `CCCC/C=C\C/C=C\CCCCCCCC(=O)O[C@H](COC(=O)CCCCCCC/C=C\CCCCCCCCC)COP(=O)(O)O` [PA(36:3)], the “collision cross section (N2)” value in data set [2] ([M+NH4]+) was found to be 270.8 Å²; in data set [3] ([M-H]-), 257.9 Å².
Consider `CCCCC/C=C\C/C=C\C/C=C\C/C=C\CCCCCC(=O)O[C@H](COC(=O)CCCCCCCCCCCCC)COP(=O)(O)O` [PA(36:4)], for which the results for the “collision cross section (N2)” value in data set [2] ([M+NH4]+), in data set [2] ([M-H]-) and in data set [3] ([M-H]-) were 272.4 Å², 258.1 Å² and 257.1 Å², respectively.
On to `CCCCC/C=C\C/C=C\C/C=C\CCCCC(=O)O[C@H](COC(=O)CCCCCCCCC/C=C\CCCCCCCC)COP(=O)(O)O` [PA(38:4)], for which the “collision cross section (N2)” value turned out to be 279.1 Å² in data set [2] ([M+NH4]+), 264.3 Å² in data set [2] ([M-H]-) and 263.4 Å² in data set [3] ([M-H]-).
As to `CCCCC/C=C\C/C=C\C/C=C\C/C=C\C/C=C\CCC(=O)O[C@H](COC(=O)CCCCCCCCCCCCC)COP(=O)([O-])OCC[N+](C)(C)C` [PC(36:5)], the “collision cross section (N2)” value worked out at 284.5 Å² in data set [2] ([M+H]+) and 284.1 Å² in data set [3] ([M+H]+).
Turning to `CCCCC/C=C\C/C=C\CCCCCCCCCC(=O)O[C@H](COC(=O)CCCCCCCCC/C=C\CCCCCC)COP(=O)([O-])OCC[N+](C)(C)C` [PC(38:3)], the “collision cross section (N2)” value is on record as 295 Å² in data set [2] ([M+H]+), 296.7 Å² in data set [3] ([M+CH3COO]-) and 291.9 Å² in data set [3] ([M+H]+).
On to `CCCCC/C=C\C/C=C\C/C=C\CCCCC(=O)OC[C@H](COP(=O)([O-])OCC[N+](C)(C)C)OC(=O)CCCCCCCCC/C=C\C/C=C\CCCCC` [PC(38:5)], for which the “collision cross section (N2)” value came out at 293 Å² in data set [2] ([M+HCOO]-); 292.9 Å² in data set [2] ([M+H]+); 296.8 Å² in data set [2] ([M+Na]+); 295.4 Å² in data set [3] ([M+CH3COO]-); 289.7 Å² in data set [3] ([M+H]+).
Take `CC/C=C\C/C=C\C/C=C\C/C=C\CCCCC(=O)O[C@H](COC(=O)CCCCCC/C=C\C/C=C\C/C=C\CCCCC)COP(=O)([O-])OCC[N+](C)(C)C` [PC(38:7)]: the figures for the “collision cross section (N2)” value in data set [2] ([M+H]+) and in data set [3] ([M+H]+) were 288.2 Å² and 286.5 Å², respectively.
As to `CCCCC/C=C\C/C=C\C/C=C\C/C=C\CCCCCC(=O)O[C@H](COC(=O)CCCCCCC/C=C\CCCCCCCC)COP(=O)([O-])OCC[N+](C)(C)C` [PC(40:5)], the “collision cross section (N2)” value in data set [2] ([M+H]+) was found to be 298.8 Å²; in data set [2] ([M+Na]+), 302 Å²; in data set [3] ([M+H]+) it was 295.5 Å².
In the case of `CCCCC/C=C\C/C=C\C/C=C\C/C=C\CCCCCC(=O)O[C@H](COC(=O)CCCC/C=C\C/C=C\C/C=C\CCCCC)COP(=O)([O-])OCC[N+](C)(C)C` [PC(40:7)], the “collision cross section (N2)” value is on record as 293.6 Å² in data set [2] ([M+H]+) and 293.2 Å² in data set [3] ([M+H]+).
Take `CCCCCCCCCC/C=C\CCCCCCCCCC(=O)O[C@H](COC(=O)CCCCCCCCCCCCC)COP(=O)(O)OCCN` [PE(36:1)]: the “collision cross section (N2)” value was 281.3 Å² in data set [2] ([M+H]+); 287.5 Å² in data set [2] ([M+Na]+); 269.9 Å² in data set [2] ([M-H]-); 288.5 Å² in data set [4] ([M+Na]+); 278.7 Å² in data set [3] ([M+H]+); 268.8 Å² in data set [3] ([M-H]-).
Turning to `CCCCC/C=C\C/C=C\C/C=C\CCCCCCC(=O)O[C@H](COC(=O)CCCCCCC/C=C\CCCCCC)COP(=O)(O)OCCN` [PE(36:4)], the “collision cross section (N2)” value in data set [2] ([M+Na]+) came out at 281.2 Å²; in data set [2] ([M-H]-), 265.2 Å²; in data set [4] ([M+Na]+), 280.6 Å²; in data set [3] ([M-H]-), 265.7 Å².
In the case of `CC/C=C\C/C=C\C/C=C\C/C=C\CCCCC(=O)OC[C@H](COP(=O)(O)OCCN)OC(=O)CCCCCCCCC/C=C\C/C=C\CCCCC` [PE(38:6)], the “collision cross section (N2)” value in data set [2] ([M+Na]+) is on record as 283.6 Å²; in data set [2] ([M-H]-) it was 269.8 Å²; in data set [4] ([M+K]+), 288.7 Å²; in data set [4] ([M+Na]+), 285 Å²; in data set [3] ([M+H]+) it was 275.7 Å²; in data set [3] ([M-H]-), 269.2 Å².
Take `CC/C=C\C/C=C\C/C=C\C/C=C\CCCCC(=O)OC[C@H](COP(=O)(O)OCCN)OC(=O)CCCCC/C=C\C/C=C\C/C=C\C/C=C\CCCCC` [PE(40:8)]: the “collision cross section (N2)” value stood at 287.3 Å² in data set [2] ([M+Na]+), 289.2 Å² in data set [4] ([M+Na]+) and 280.7 Å² in data set [3] ([M+H]+).
`CC/C=C\C/C=C\C/C=C\CCCCCCCC(=O)O[C@H](CO/C=C\CCCCCCCCCCCCCCCC)COP(=O)(O)OCCN` [PE(p36:3)]: the “collision cross section (N2)” value in data set [2] ([M-H]-) is 265.6 Å²; in data set [3] ([M-H]-), 265.2 Å².
Turning to `CC/C=C\C/C=C\C/C=C\C/C=C\C/C=C\C/C=C\CCC(=O)O[C@H](CO/C=C\CCCCCCCCCCCCCC)COP(=O)(O)OCCN` [PE(p38:6)], the entries for the “collision cross section (N2)” value in data set [2] ([M+H]+), in data set [3] ([M+H]+) and in data set [3] ([M-H]-) were 278 Å², 276.9 Å² and 268.1 Å², respectively.
Regarding `CC/C=C\C/C=C\C/C=C\C/C=C\C/C=C\CCCC(=O)O[C@H](CO/C=C\CCCCCCCCCCCCCCCCCC)COP(=O)(O)OCCN` [PE(p40:5)], the “collision cross section (N2)” value in data set [2] ([M-H]-) is 276.1 Å²; in data set [3] ([M+H]+) it was 284.7 Å²; in data set [3] ([M-H]-), 274.8 Å².
As to `CCCC/C=C\CCCCCCCC(=O)OC[C@H](COP(=O)(O)O[C@H]1C(O)C(O)C(O)[C@@H](O)C1O)OC(=O)CCCCCCCCC/C=C\CCCCCCCCCC` (stereo not given in full) [PI(36:2)], the “collision cross section (N2)” value in data set [2] ([M+H]+) was 299.3 Å²; in data set [2] ([M+Na]+), 297.6 Å²; in data set [2] ([M-H]-) it was 289.3 Å²; in data set [3] ([M+Na]+), 293.3 Å²; in data set [3] ([M-H]-) it was 288.7 Å².
As to `CC/C=C\C/C=C\C/C=C\C/C=C\CCCCC(=O)OC[C@H](COP(=O)(O)O[C@H]1C(O)C(O)C(O)[C@@H](O)C1O)OC(=O)CCCCCCCCC/C=C\CCCCCCCCCC` (stereo not given in full) [PI(40:5)], the “collision cross section (N2)” value came to 307.1 Å² in data set [2] ([M+H]+); 308.6 Å² in data set [2] ([M+NH4]+); 305.8 Å² in data set [2] ([M+Na]+); 297.7 Å² in data set [2] ([M-H]-); 301.1 Å² in data set [3] ([M+Na]+); 296.5 Å² in data set [3] ([M-H]-).
With `CC/C=C\C/C=C\C/C=C\C/C=C\C/C=C\C/C=C\CCC(=O)O[C@H](COC(=O)CCCCCCCCCCCCCCCCC)COP(=O)(O)O[C@H]1C(O)C(O)C(O)[C@@H](O)C1O` (stereo not given in full) [PI(40:6)], the “collision cross section (N2)” value in data set [2] ([M+NH4]+) amounted to 306.1 Å²; in data set [2] ([M-H]-), 296.4 Å²; in data set [3] ([M+Na]+), 299.8 Å².
